Laboratory results taken from ChEMBL document CHEMBL5223107 (Bioorg Med Chem Lett, 2022).
Values belong to the compound of their own block, whether it stands above or below them. The source made the active and inactive calls. The rule behind the calls is not given here.

Experiments:
[1] = target: T1, Androgen receptor (Homo sapiens) (UniProt P10275); experiment: Inhibition of androgen receptor in human 22Rv1 cells assessed as reduction in […] expression level at 1 to 10 uM incubated for 24 hrs by western blot analysis; format: cell-based; settings: dose 1-10 µM
T1 sequence (whole entry): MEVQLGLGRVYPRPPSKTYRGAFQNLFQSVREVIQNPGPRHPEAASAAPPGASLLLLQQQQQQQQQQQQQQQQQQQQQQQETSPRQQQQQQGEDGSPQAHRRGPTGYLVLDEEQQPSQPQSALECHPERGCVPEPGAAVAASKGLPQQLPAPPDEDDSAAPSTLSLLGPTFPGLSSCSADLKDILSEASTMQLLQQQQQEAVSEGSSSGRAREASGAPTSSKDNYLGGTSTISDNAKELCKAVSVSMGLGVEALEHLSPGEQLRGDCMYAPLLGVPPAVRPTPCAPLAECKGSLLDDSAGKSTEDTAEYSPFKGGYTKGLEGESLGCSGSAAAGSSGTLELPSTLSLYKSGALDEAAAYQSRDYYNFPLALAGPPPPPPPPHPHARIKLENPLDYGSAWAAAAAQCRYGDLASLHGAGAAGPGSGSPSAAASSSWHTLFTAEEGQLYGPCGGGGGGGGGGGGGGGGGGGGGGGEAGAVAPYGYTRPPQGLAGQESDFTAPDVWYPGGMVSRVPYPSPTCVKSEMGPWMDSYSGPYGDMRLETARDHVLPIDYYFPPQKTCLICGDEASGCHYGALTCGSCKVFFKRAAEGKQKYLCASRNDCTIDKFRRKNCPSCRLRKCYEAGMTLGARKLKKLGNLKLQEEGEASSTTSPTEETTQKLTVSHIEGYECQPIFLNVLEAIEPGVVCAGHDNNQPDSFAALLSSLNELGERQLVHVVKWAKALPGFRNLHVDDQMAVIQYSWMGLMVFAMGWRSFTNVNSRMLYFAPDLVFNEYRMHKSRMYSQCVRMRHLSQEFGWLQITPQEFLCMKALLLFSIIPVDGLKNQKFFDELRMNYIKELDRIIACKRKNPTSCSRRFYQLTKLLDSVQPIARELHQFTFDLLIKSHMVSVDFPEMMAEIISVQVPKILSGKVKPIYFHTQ

[2] = target: T1, Androgen receptor (Homo sapiens); experiment: Inhibition of androgen receptor in human PC-3 cells assessed as inhibition of AR transcription activity by dual-luciferase reporter assays; format: cell-based
[3] = target: T1, Androgen receptor (Homo sapiens); experiment: Inhibition of androgen receptor in human LNCaP cells assessed as reduction in DHT-induced PSA mRNA expression level at 1 to 5 uM incubated for 24 hrs by qRT-PCR analysis; format: cell-based; settings: dose 1-5 µM
PC-3 = experiment: Antiproliferative activity against human PC-3 cells assessed as cell growth inhibition incubated for 72 hrs by MTT assay; format: functional, cell-based; settings: PC-3, 72 h
CWR22R = experiment: Antiproliferative activity against human 22Rv1 cells assessed as cell growth inhibition incubated for 72 hrs by MTT assay; format: functional, cell-based; settings: 22Rv1, 72 h
[4] = target: T1, Androgen receptor (Homo sapiens); experiment: Inhibition of androgen receptor in human LNCaP cells assessed as reduction in DHT-induced AR expression level at 1 to 5 uM incubated for 24 hrs by western blot analysis; format: cell-based; settings: dose 1-5 µM
[5] = target: T1, Androgen receptor (Homo sapiens); experiment: Inhibition of androgen receptor in human LNCaP cells assessed as reduction in DHT-induced AR mRNA expression level at 1 to 5 uM incubated for 24 hrs by qRT-PCR analysis; format: cell-based; settings: dose 1-5 µM
[6] = target: T1, Androgen receptor (Homo sapiens); experiment: Inhibition of androgen receptor in human LNCaP cells assessed as reduction in DHT-induced PSA level at 1 to 5 uM incubated for 24 hrs by western blot analysis; format: cell-based; settings: dose 1-5 µM
[7] = target: T1, Androgen receptor (Homo sapiens); experiment: Inhibition of androgen receptor in human 22Rv1 cells assessed as reduction in DHT-induced PSA level at 1 to 5 uM incubated for 24 hrs by western blot analysis; format: cell-based; settings: dose 1-5 µM
[8] = target: T1, Androgen receptor (Homo sapiens); experiment: Inhibition of androgen receptor in human 22Rv1 cells assessed as reduction in DHT-induced AR expression level at 1 to 5 uM incubated for 24 hrs by western blot analysis; format: cell-based; settings: dose 1-5 µM
LNCaP = experiment: Antiproliferative activity against human LNCaP cells assessed as cell growth inhibition incubated for 72 hrs by MTT assay; format: functional, cell-based
[9] = target: T1, Androgen receptor (Homo sapiens); experiment: Inhibition of androgen receptor in human 22Rv1 cells assessed as reduction in BCL-2 expression level at 1 to 10 uM incubated for 24 hrs by western blot analysis; format: cell-based; settings: dose 1-10 µM
[10] = target: T1, Androgen receptor (Homo sapiens); experiment: Inhibition of androgen receptor in human 22Rv1 cells assessed as reduction in DHT-induced AR mRNA expression level at 1 to 5 uM incubated for 24 hrs by qRT-PCR analysis; format: cell-based; settings: dose 1-5 µM
[11] = target: T1, Androgen receptor (Homo sapiens); experiment: Inhibition of androgen receptor in human 22Rv1 cells assessed as reduction in DHT-induced PSA mRNA expression level at 1 to 5 uM incubated for 24 hrs by qRT-PCR analysis; format: cell-based; settings: dose 1-5 µM
Androgen receptor = target: T2, Androgen receptor (Homo sapiens, UniProt P10275); experiment: Inhibition of androgen receptor in human LNCaP cells assessed as inhibition of AR transcription activity by dual-luciferase reporter assays; format: cell-based
T2 sequence (P10275 whole entry): T1 sequence (whole entry)

- inhibition [1]: Active
- inhibition [2]: Dose-Dependent Effect
- inhibition [3]: Dose-Dependent Effect
- IC50 (PC-3): 3160 nM
- inhibition [4]: Dose-Dependent Effect
- inhibition [5]: Dose-Dependent Effect
- inhibition [6]: Dose-Dependent Effect
- inhibition [7]: Active
- inhibition [8]: Active
- IC50 (LNCaP): 350 nM
- inhibition [9]: Active
- inhibition [10]: Dose-Dependent Effect
- inhibition [11]: Dose-Dependent Effect
Structure (SMILES): CC1=CC2C(C(C)C)=C(O)C(=O)/C(=C\NCCS(=O)(=O)O)C2C(O)=C1c1c(C)cc2c(c1O)/C(=C/NCCS(=O)(=O)O)C(=O)C(O)=C2C(C)C (configuration not stated)
- IC50 (CWR22R): 910 nM

Structure (SMILES): CNC(=O)c1ccc(N2C(=S)N(c3ccc(C#N)c(C(F)(F)F)c3)C(=O)C2(C)C)cc1F [ENZALUTAMIDE]
- IC50 (CWR22R): 46300 nM

- IC50 (Androgen receptor): > 5000 nM
Structure (SMILES): C#CCOCc1c(C=O)c(O)c(O)c(C)c1-c1ccccc1

- IC50 (Androgen receptor): 2050 nM
Structure (SMILES): Cc1c(O)c(O)c(C=O)c(COCc2ccccc2)c1-c1ccc(F)c(F)c1
